The values that follow come from BindingDB's records for doi:10.1080/14756360701342532 (Chinese Academy of Medical Sciences, 2008).

For the assay, the target named is T1, Seed linoleate 13S-lipoxygenase-1 (Glycine max, UniProt P08170).
T1 sequence (P08170 whole entry): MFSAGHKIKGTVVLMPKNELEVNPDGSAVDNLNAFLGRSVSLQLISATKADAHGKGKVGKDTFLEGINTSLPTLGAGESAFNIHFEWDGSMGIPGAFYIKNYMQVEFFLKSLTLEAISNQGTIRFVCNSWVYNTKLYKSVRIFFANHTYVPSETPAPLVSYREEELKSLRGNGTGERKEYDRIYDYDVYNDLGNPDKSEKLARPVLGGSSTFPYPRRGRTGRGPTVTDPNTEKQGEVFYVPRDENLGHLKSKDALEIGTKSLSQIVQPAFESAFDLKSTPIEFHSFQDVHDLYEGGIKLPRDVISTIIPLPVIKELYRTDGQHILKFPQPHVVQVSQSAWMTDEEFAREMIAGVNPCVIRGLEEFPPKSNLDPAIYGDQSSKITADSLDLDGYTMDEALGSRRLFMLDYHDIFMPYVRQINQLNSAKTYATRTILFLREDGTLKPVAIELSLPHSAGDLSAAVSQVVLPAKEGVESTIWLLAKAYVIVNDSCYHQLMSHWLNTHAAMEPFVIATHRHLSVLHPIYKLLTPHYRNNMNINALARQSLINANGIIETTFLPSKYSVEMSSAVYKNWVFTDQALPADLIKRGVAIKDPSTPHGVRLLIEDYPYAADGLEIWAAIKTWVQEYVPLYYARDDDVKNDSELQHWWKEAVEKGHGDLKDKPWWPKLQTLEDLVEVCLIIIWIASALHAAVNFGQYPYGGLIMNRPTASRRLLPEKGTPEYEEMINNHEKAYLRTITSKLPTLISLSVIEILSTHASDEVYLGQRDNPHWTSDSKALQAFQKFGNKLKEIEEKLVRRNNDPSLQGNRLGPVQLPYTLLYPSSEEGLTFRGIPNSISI
Kind of assay: Inhibition Assay. Conditions: pH 8; 25 °C. The protocol:
Lipoxygenase inhibiting activity was measured by slightly modifying the spectrometric method. Lipoxygenase type I-B and linoleic acid were purchased from Sigma.
A word on the IC50: it is the concentration that gives 50% inhibition. Take `COC(=O)[C@@H]1C2C=C[C@@]3(O)CO[C@@H](O[C@@H]1O)C23` (stereo partly drawn) [Beta-gardiol, 5]: the half-inhibitory concentration (IC50) was 47.3 µM.
As for `COc1ccc(/C=C/C(=O)OC2C(C)OC(O[C@@H]3C=C(CO)C4C3C=CO[C@H]4OC3OC(CO)C(O)C(O)C3O)C(OC(C)=O)C2O)cc1` (some centres not stated) [Buddlejoside A2, 6], the figure is 41.9 µM.
To `COc1ccc(/C=C/C(=O)OC2C(O)C(C)OC(O[C@H]3C4C=CO[C@@H](OC5OC(CO)C(O)C(O)C5O)C4[C@@]4(CO)O[C@@H]34)C2OC(C)=O)cc1` (some centres not stated) [Buddlejoside A5, 7] belongs 40.4 µM; to `O=C(OCC1=C[C@@H](O)[C@@H]2C=CO[C@@H](OC3OC(CO)C(O)C(O)C3O)[C@H]12)c1ccc(O)cc1` (some centres not stated) [Buddlejoside A, 1], 44.3 µM; to `O=C(OCC1=C[C@@H](O)[C@@H]2C=CO[C@@H](OC3OC(CO)C(O)C(O)C3O)[C@H]12)c1ccc(O)c(O)c1` (some centres not stated) [Buddlejoside B, 2], 39.7 µM.
As for `CC(C)CC(=O)OCC1=C[C@@H](O)[C@@H]2C=CC[C@H](OC3OC(CO)C(O)C(O)C3O)[C@H]12` (some centres not stated) [Buddlejoside C, 3], the figure is 52.5 µM.
On to `COC(=O)C1=CO[C@@H](O)C2C(CO)C=CC12` (some centres not stated) [Genipin, 4], for which the half-maximal inhibitory concentration (IC50) stood at 49.6 µM.
